Measured values: ChEMBL document CHEMBL5500358, “Identification of CH2-linked quinolone-aminopyrimidine hybrids as potent anti-MRSA agents: Low resistance potential and lack of cross-resistance with fluoroquinolone antibiotics” (Eur J Med Chem, 2024)
Converted amounts (≈) assume the structure as drawn.

Legend:
Staphylococcus aureus [1] = experiment: Antibacterial activity against fluoroquinolone-sensitive methicillin resistant Staphylococcus aureus USA500 incubated for 16 to 18 hrs by absorbance based analysis; format: functional; settings: time 16-18 hrs
Staphylococcus aureus [2] = experiment: Antibacterial activity against fluoroquinolone-sensitive methicillin resistant Staphylococcus aureus ATCC 33591 incubated for 16 to 18 hrs by absorbance based analysis; format: functional; settings: time 16-18 hrs
Escherichia coli = experiment: Antibacterial activity against Escherichia coli ATCC 25922 incubated for 16 to 18 hrs by absorbance based analysis; format: functional; settings: time 16-18 hrs
Staphylococcus aureus [3] = experiment: Antibacterial activity against fluoroquinolone/methicillin resistant Staphylococcus aureus Mu50 incubated for 16 to 18 hrs by absorbance based analysis; format: functional; settings: time 16-18 hrs
[4] = Metabolic stability in human liver microsomes assessed as drug elimination rate constant at 1 uM by LC-MS/MS analysis; format: ADME, Microsome
[5] = Metabolic stability in human liver microsomes assessed as elimination half life at 1 uM by LC-MS/MS analysis; format: ADME, Microsome; settings: read-out: beta t1/2
[6] = Metabolic stability in human liver microsomes assessed as microsomal intrinsic clearance at 1 uM by LC-MS/MS analysis; format: ADME, Microsome; settings: read-out: CLH
[7] = Metabolic stability in human liver microsomes assessed as liver intrinsic clearance at 1 uM by LC-MS/MS analysis; format: ADME, Microsome; settings: read-out: CLH
[8] = Metabolic stability in human liver microsomes assessed as compound remaining at 1 uM measured after 60 mins by LC-MS/MS analysis; format: ADME, Microsome; settings: read-out: Stability
[9] = Metabolic stability in rat liver microsomes assessed as drug elimination rate constant at 1 uM by LC-MS/MS analysis; format: ADME, Microsome
[10] = Metabolic stability in rat liver microsomes assessed as elimination half life at 1 uM by LC-MS/MS analysis; format: ADME, Microsome; settings: read-out: beta t1/2
[11] = Metabolic stability in rat liver microsomes assessed as microsomal intrinsic clearance at 1 uM by LC-MS/MS analysis; format: ADME, Microsome; settings: read-out: CLH
[12] = Metabolic stability in rat liver microsomes assessed as liver intrinsic clearance at 1 uM by LC-MS/MS analysis; format: ADME, Microsome; settings: read-out: CLH
[13] = Metabolic stability in rat liver microsomes assessed as compound remaining at 1 uM measured after 60 mins by LC-MS/MS analysis; format: ADME, Microsome; settings: read-out: Stability
A549 = experiment: Cytotoxicity against human A549 cells assessed as reduction in cell viability at 100 uM incubated for 24 hrs by CCK-8 assay; format: toxicity, cell-based; settings: a549, 24 h
HEK293 = experiment: Cytotoxicity against HEK293 cells assessed as reduction in cell viability at 100 uM incubated for 24 hrs by CCK-8 assay; format: toxicity, cell-based; settings: human, hek293, 24 h
[14] = target: Voltage-gated inwardly rectifying potassium channel KCNH2 (Homo sapiens, UniProt Q12809); experiment: Inhibition of hERG expressed in CHO cells at -80 mV holding potential by manual patch clamp method; format: toxicity, cell-based
Voltage-gated inwardly rectifying potassium channel KCNH2, sequence (Q12809 whole entry): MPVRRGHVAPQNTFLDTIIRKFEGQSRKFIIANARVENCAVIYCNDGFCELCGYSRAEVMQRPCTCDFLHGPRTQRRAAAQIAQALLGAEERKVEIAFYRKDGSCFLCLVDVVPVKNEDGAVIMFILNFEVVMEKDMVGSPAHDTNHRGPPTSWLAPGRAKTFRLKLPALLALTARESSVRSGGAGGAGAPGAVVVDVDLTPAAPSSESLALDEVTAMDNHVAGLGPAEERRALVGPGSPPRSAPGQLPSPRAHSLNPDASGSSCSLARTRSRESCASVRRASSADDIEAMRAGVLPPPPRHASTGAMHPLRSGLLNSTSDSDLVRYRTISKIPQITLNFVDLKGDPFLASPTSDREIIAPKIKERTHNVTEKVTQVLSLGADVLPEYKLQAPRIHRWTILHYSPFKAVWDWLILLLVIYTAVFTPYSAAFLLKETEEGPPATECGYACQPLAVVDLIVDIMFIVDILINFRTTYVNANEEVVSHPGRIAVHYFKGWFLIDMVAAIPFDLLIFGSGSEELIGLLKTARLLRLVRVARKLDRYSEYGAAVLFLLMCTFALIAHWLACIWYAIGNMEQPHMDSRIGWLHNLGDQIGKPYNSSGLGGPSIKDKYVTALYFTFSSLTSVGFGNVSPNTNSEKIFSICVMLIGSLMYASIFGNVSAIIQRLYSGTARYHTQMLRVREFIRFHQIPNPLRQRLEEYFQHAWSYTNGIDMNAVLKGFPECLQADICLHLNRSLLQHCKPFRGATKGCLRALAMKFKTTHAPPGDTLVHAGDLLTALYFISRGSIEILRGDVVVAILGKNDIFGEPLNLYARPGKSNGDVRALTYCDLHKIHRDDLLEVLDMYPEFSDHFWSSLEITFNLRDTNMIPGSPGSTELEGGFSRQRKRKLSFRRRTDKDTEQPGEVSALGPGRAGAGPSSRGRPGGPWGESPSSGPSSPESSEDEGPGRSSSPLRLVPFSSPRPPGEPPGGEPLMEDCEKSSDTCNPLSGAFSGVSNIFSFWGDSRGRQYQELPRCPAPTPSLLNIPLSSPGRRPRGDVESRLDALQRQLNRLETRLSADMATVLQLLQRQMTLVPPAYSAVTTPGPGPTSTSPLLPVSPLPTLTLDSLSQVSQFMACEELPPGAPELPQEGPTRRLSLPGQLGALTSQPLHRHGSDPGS

Staphylococcus aureus [15] = experiment: Antibacterial activity against methicillin resistant Staphylococcus aureus ATCC 33591 measured after 15 passages; format: functional
[16] = Acute toxicity in ICR mouse assessed as animal death at 400 to 2000 mg/kg, po administered as single dose via oral gavage and measured for 8 days; format: organism-based; settings: in vivo, 192 h, dose 400-2000 mg/kg, time 8 day
[17] = Acute toxicity in ICR mouse assessed as abnormal behaviors at 400 to 2000 mg/kg, po administered as single dose via oral gavage and measured for 8 days; format: organism-based; settings: in vivo, 192 h, dose 400-2000 mg/kg, time 8 day
[18] = Acute toxicity in male ICR mouse assessed as effect on body weight at 400 to 2000 mg/kg, po administered as single dose via oral gavage and measured for 8 days; format: organism-based; settings: in vivo, 192 h, dose 400-2000 mg/kg, time 8 day
[19] = Acute toxicity in female ICR mouse assessed as effect on body weight at 400 to 2000 mg/kg, po administered as single dose via oral gavage and measured for 8 days; format: organism-based; settings: in vivo, 192 h, dose 400-2000 mg/kg, time 8 day
[20] = Acute toxicity in ICR mouse assessed as effect on food intake at 400 to 2000 mg/kg, po administered as single dose via oral gavage and measured for 8 days; format: organism-based; settings: in vivo, 192 h, dose 400-2000 mg/kg, time 8 day
[21] = Acute toxicity in ICR mouse assessed as heart damage at 400 to 2000 mg/kg, po administered as single dose via oral gavage and measured on day 9; format: organism-based; settings: in vivo, 216 h, dose 400-2000 mg/kg, time 9 day
[22] = Acute toxicity in ICR mouse assessed as brain damage at 400 to 2000 mg/kg, po administered as single dose via oral gavage and measured on day 9; format: organism-based; settings: in vivo, 216 h, dose 400-2000 mg/kg, time 9 day
[23] = Acute toxicity in ICR mouse assessed as liver damage at 400 to 2000 mg/kg, po administered as single dose via oral gavage and measured on day 9; format: organism-based; settings: in vivo, 216 h, dose 400-2000 mg/kg, time 9 day
[24] = Acute toxicity in ICR mouse assessed as spleen damage at 400 to 2000 mg/kg, po administered as single dose via oral gavage and measured on day 9; format: organism-based; settings: in vivo, 216 h, dose 400-2000 mg/kg, time 9 day
[25] = Acute toxicity in ICR mouse assessed as lung damage at 400 to 2000 mg/kg, po administered as single dose via oral gavage and measured on day 9; format: organism-based; settings: in vivo, 216 h, dose 400-2000 mg/kg, time 9 day
[26] = Acute toxicity in ICR mouse assessed as kidney damage at 400 to 2000 mg/kg, po administered as single dose via oral gavage and measured on day 9; format: organism-based; settings: in vivo, 216 h, dose 400-2000 mg/kg, time 9 day
[27] = Initial drug concentration in male Sprague-Dawley rat at 10 mg/kg, iv administered as single dose and measured upto 24 hrs by LC-MS/MS analysis; format: ADME, organism-based; settings: in vivo
[28] = Half life in male Sprague-Dawley rat at 10 mg/kg, iv administered as single dose and measured upto 24 hrs by LC-MS/MS analysis; format: ADME, organism-based; settings: in vivo
[29] = Clearance in male Sprague-Dawley rat at 10 mg/kg, iv administered as single dose and measured upto 24 hrs by LC-MS/MS analysis; format: ADME, organism-based; settings: in vivo
[30] = AUC (0 to t) in male Sprague-Dawley rat at 10 mg/kg, iv administered as single dose and measured upto 24 hrs by LC-MS/MS analysis; format: ADME, organism-based; settings: in vivo
[31] = AUC (0 to infinity) in male Sprague-Dawley rat at 10 mg/kg, iv administered as single dose and measured upto 24 hrs by LC-MS/MS analysis; format: ADME, organism-based; settings: in vivo
[32] = MRT (0 to t) in male Sprague-Dawley rat at 10 mg/kg, iv administered as single dose and measured upto 24 hrs by LC-MS/MS analysis; format: ADME, organism-based; settings: in vivo
[33] = MRT (0 to infinity) in male Sprague-Dawley rat at 10 mg/kg, iv administered as single dose and measured upto 24 hrs by LC-MS/MS analysis; format: ADME, organism-based; settings: in vivo
[34] = Cmax in male Sprague-Dawley rat at 20 mg/kg, po administered as single dose and measured upto 24 hrs by LC-MS/MS analysis; format: ADME, organism-based; settings: in vivo
[35] = Half life in male Sprague-Dawley rat at 20 mg/kg, po administered as single dose and measured upto 24 hrs by LC-MS/MS analysis; format: ADME, organism-based; settings: in vivo
[36] = Tmax in male Sprague-Dawley rat at 20 mg/kg, po administered as single dose and measured upto 24 hrs by LC-MS/MS analysis; format: ADME, organism-based; settings: in vivo
[37] = AUC (0 to t) in male Sprague-Dawley rat at 20 mg/kg, po administered as single dose and measured upto 24 hrs by LC-MS/MS analysis; format: ADME, organism-based; settings: in vivo
[38] = AUC (0 to infinity) in male Sprague-Dawley rat at 20 mg/kg, po administered as single dose and measured upto 24 hrs by LC-MS/MS analysis; format: ADME, organism-based; settings: in vivo
[39] = MRT (0 to t) in male Sprague-Dawley rat at 20 mg/kg, po administered as single dose and measured upto 24 hrs by LC-MS/MS analysis; format: ADME, organism-based; settings: in vivo
[40] = MRT (0 to infinity) in male Sprague-Dawley rat at 20 mg/kg, po administered as single dose and measured upto 24 hrs by LC-MS/MS analysis; format: ADME, organism-based; settings: in vivo
[41] = Oral bioavailability in male Sprague-Dawley rat at 20 mg/kg administered as single dose and measured upto 24 hrs by LC-MS/MS analysis; format: ADME, organism-based; settings: in vivo

## O=C(O)c1cn(C2CC2)c2cc(Nc3nccc(Cc4ccc(F)cc4F)n3)ccc2c1=O
Staphylococcus aureus [1]
  MIC: 0.39 µg/mL (≈ 0.87 µM)
Staphylococcus aureus [2]
  MIC: 0.25 µg/mL (≈ 0.558 µM)
Escherichia coli
  MIC: > 64 µg/mL
Staphylococcus aureus [3]
  MIC: 0.39 µg/mL (≈ 0.87 µM)
[4]
  k el at 1 µM: 0.00025 s⁻¹
[5]
  half-life at 1 µM: 0.75 h
[6]
  microsomal CLint at 1 µM: 30.8 µL/min/mg
[7]
  CLint scaled at 1 µM: 29.1 mL/min/kg
[8]
  remaining at 1 h, 1 µM: 40.9%
[9]
  k el at 1 µM: 0.000283 s⁻¹
[10]
  half-life at 1 µM: 0.683 h
[11]
  microsomal CLint at 1 µM: 33.8 µL/min/mg
[12]
  CLint scaled at 1 µM: 60.9 mL/min/kg
[13]
  remaining at 1 h, 1 µM: 35.7%
A549
  Activity: Non-Toxic
HEK293
  Activity: Non-Toxic
[14]
  IC50: > 40 µM
Staphylococcus aureus [15]
  MIC: 0.25 µg/mL (≈ 0.558 µM)
[16]
  Activity: Non-Toxic
[17]
  Activity: Non-Toxic
[18]
  Activity: Non-Toxic
[19]
  Activity: Non-Toxic
[20]
  Activity: Non-Toxic
[21]
  Activity: Non-Toxic
[22]
  Activity: Non-Toxic
[23]
  Activity: Non-Toxic
[24]
  Activity: Non-Toxic
[25]
  Activity: Non-Toxic
[26]
  Activity: Non-Toxic
[27]
  C0 at 24 h: 11800 ng/mL
[28]
  half-life: 4.23 h
[29]
  clearance: 18.5 mL/min/kg
[30]
  AUC(0-t) at 24 h: 9060 ng·h/mL
[31]
  AUC(0-inf): 9100 ng·h/mL
[32]
  MRT last at 24 h: 1.01 h
[33]
  MRT inf: 1.2 h
[34]
  Cmax: 31 ng/mL
[35]
  half-life: 2.16 h
[36]
  Tmax: 2.67 h
[37]
  AUC(0-t) at 24 h: 162 ng·h/mL
[38]
  AUC(0-inf): 171 ng·h/mL
[39]
  MRT last at 24 h: 3.51 h
[40]
  MRT inf: 4.2 h
[41]
  bioavailability: 0.9%
